The values below come from ChEMBL document CHEMBL1148617, “Design, synthesis, and structure-activity relationships of 1-,3-,8-, and 9-substituted-9-deazaxanthines at the human A2B adenosine receptor” (J Med Chem, 2006).

Each structure is given as a SMILES string.

By inhibition is commonly meant how much of the control response was suppressed. A word on the Ki: it is a dissociation constant, usually derived from enzyme kinetics or from competition with a known ligand. High values mean a looser hold on the target, low ones a stronger hold on the target.

For test [1], the target named is T1, Adenosine receptor A2b (Homo sapiens) (UniProt P29275).
T1 sequence (whole entry): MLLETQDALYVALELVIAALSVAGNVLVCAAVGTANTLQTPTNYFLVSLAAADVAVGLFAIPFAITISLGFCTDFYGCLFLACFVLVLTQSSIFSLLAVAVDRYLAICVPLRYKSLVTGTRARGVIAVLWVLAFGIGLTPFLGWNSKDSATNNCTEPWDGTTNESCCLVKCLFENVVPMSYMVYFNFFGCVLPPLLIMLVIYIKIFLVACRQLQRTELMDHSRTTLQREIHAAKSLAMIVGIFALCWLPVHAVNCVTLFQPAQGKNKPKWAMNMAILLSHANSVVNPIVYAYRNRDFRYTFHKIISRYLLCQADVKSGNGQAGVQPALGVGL
The test is described as follows: Displacement of [3H]DPCPX from recombinant human adenosine A2B receptor expressed in HEK293 cells at 0.01 uM. (Displacement assays read how much labelled ligand stays bound in the presence of the test substance.)

The target of test [2] is T2, Adenosine receptor A2a (Homo sapiens, UniProt P29274). The experiment in a line: Displacement of [3H]ZM-241385 from recombinant human adenosine A2A receptor expressed in HeLa cells at 0.1 uM.
Test [3] has as its target T2, Adenosine receptor A2a.
Description: Binding affinity to recombinant human adenosine A2A receptor
A further test concerns the target T3, Adenosine receptor A2b (Homo sapiens, UniProt P29275).
T3 sequence (P29275 whole entry): T1 sequence (whole entry)

Test [4] addresses T1, Adenosine receptor A2b (Homo sapiens). The experiment in a line: Displacement of [3H]DPCPX from recombinant human adenosine A2B receptor expressed in HEK293 cells at 0.1 uM. It counts as cell-based.

T2 sequence (P29274 whole entry): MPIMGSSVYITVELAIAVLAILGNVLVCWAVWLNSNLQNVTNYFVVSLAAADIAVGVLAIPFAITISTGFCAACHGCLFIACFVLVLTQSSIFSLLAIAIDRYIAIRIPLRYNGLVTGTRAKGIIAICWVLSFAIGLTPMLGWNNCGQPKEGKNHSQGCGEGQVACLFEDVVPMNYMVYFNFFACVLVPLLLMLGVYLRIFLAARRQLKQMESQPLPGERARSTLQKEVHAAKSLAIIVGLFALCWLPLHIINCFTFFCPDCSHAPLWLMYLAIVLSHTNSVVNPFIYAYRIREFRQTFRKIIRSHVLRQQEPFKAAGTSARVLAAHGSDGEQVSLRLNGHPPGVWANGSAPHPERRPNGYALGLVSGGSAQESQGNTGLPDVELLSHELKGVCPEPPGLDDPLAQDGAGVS

For the compound `CCCn1c(=O)c2[nH]c(-c3ccc(OCC(=O)Nc4ccc(F)cc4)cc3)c(Cl)c2n(CCC)c1=O`, the inhibition amounted to 10% in test [1], 54% at Adenosine receptor A2a [2] and 69% in test [4]. The Ki at Adenosine receptor A2a [3] was 40.7 nM; on Adenosine receptor A2b it was 27.5 nM.

For `CCCn1c(=O)c2[nH]c(-c3ccc(OCC(=O)c4ccc(I)cc4)cc3)nc2n(CCC)c1=O`, the values for the Ki at Adenosine receptor A2a [3] and on Adenosine receptor A2b were 2.14 nM and 5890 nM, respectively.

Consider `CCCn1c(=O)c2[nH]c(-c3ccc(OCC(=O)Nc4ccccc4)cc3)cc2n(CCC)c1=O`, for which the results for the inhibition (in test [1]; on Adenosine receptor A2a [2]; in test [4]) were 47%, 6% and 92%, respectively. Moreover, the results for the Ki at Adenosine receptor A2a [3] and on Adenosine receptor A2b were 224 nM and 9.33 nM, respectively.

With `Cn1c(=O)c2[nH]c(-c3ccc(OCC(=O)NCc4ccc(Cl)cc4)cc3)cc2n(C)c1=O`, the inhibition in test [1] came out at 61%; at Adenosine receptor A2a [2] it was 75%; in test [4] it was 93%. Besides, the values for the Ki on Adenosine receptor A2a [3] and at Adenosine receptor A2b were 20.4 nM and 4.9 nM, respectively.

Take `CCCn1c(=O)c2[nH]c(-c3ccc(OCC(=O)Nc4ccccc4F)cc3)c(Cl)c2n(CCC)c1=O`: the inhibition worked out at 5% in test [1], 2% on Adenosine receptor A2a [2] and 30% in test [4]. The Ki at Adenosine receptor A2a [3] was 724 nM; on Adenosine receptor A2b it was 141 nM.

`COc1cc(-c2cc3c([nH]2)c(=O)n(C)c(=O)n3C)ccc1OCC(=O)Nc1ccccc1`: the inhibition in test [1] worked out at 10%; at Adenosine receptor A2a [2], 20%; in test [4] it was 27%. Further, the Ki was 302 nM on Adenosine receptor A2a [3] and 148 nM at Adenosine receptor A2b.

With `Cn1c(=O)c2[nH]c(-c3ccc(OCC(=O)Nc4nncs4)cc3)cc2n(C)c1=O`, the inhibition in test [1] was 36%; at Adenosine receptor A2a [2] it was 43%; in test [4] it was 81%. Besides, the Ki was 16.2 nM at Adenosine receptor A2a [3] and 15.1 nM on Adenosine receptor A2b.

As to `CCCn1c(=O)c2[nH]c(-c3ccc(OCC(=O)Nc4ccc(OC(F)(F)F)cc4)cc3)cc2n(CCC)c1=O`, the figures for the inhibition (in test [1]; on Adenosine receptor A2a [2]; in test [4]) were 53%, 31% and 91%, respectively. The Ki at Adenosine receptor A2a [3] is 107 nM; at Adenosine receptor A2b it was 6.92 nM.

For `CCCn1c(=O)c2[nH]c(-c3ccc(OCC(=O)n4ccc(N)n4)cc3)cc2n(CCC)c1=O`, the inhibition in test [1] is 30%; at Adenosine receptor A2a [2], 65%; in test [4] it was 83%. Also, the Ki was 26.3 nM on Adenosine receptor A2a [3] and 17 nM on Adenosine receptor A2b.

For the compound `CCCn1c(=O)c2nc(-c3cc(OCC(=O)c4ccc(F)cc4)n(C)n3)[nH]c2n(CCC)c1=O`, the Ki at Adenosine receptor A2a [3] is 186 nM; at Adenosine receptor A2b it was greater than 1000 nM.

`CCCn1c(=O)c2[nH]c(-c3ccc(OC(C)C(=O)O)cc3)cc2n(CCC)c1=O` (stereo not drawn): the inhibition at Adenosine receptor A2a [2] was 8%; in test [4], 44%. In addition, the Ki was 1000 nM at Adenosine receptor A2a [3] and 43.7 nM at Adenosine receptor A2b.

For `CCCn1c(=O)c2[nH]c(-c3ccc(OCC(=O)O)cc3)cc2n(CCC)c1=O`, the Ki was 123 nM on Adenosine receptor A2a [3] and 15.8 nM at Adenosine receptor A2b.

As for `CCCn1c(=O)n(C)c(=O)c2[nH]c(-c3ccc(OCC(=O)O)cc3)cc21`, the inhibition on Adenosine receptor A2a [2] amounted to 15%; in test [4], 51%. Moreover, the Ki on Adenosine receptor A2a [3] is 776 nM; at Adenosine receptor A2b, 45.7 nM.

As for `CCCn1c(=O)c2[nH]c(-c3cc(OCC(=O)c4ccc(Br)cc4)nn3C)nc2n(CCC)c1=O`, the Ki at Adenosine receptor A2a [3] was 25.1 nM; at Adenosine receptor A2b, greater than 1000 nM.

Consider `CCCn1c(=O)c2[nH]c(-c3ccc(OCC(=O)O)cc3)c(Br)c2n(CCC)c1=O`, for which the values for the inhibition (on Adenosine receptor A2a [2]; in test [4]) were 11% and 48%, respectively. Also, the Ki on Adenosine receptor A2a [3] is 490 nM; at Adenosine receptor A2b, 79.4 nM.

Regarding `CCCn1c(=O)c2[nH]c(-c3ccc(OCC(=O)O)cc3)c(Cl)c2n(CCC)c1=O`, the results for the inhibition (at Adenosine receptor A2a [2]; in test [4]) were 19% and 36%, respectively. The Ki on Adenosine receptor A2a [3] is 398 nM; on Adenosine receptor A2b, 158 nM.

With `CCCn1c(=O)c2[nH]c(-c3ccc(OCC(=O)c4ccc(I)cc4)nn3)nc2n(CCC)c1=O`, the Ki at Adenosine receptor A2a [3] and on Adenosine receptor A2b was greater than 1000 nM each time.

For the compound `CCOC(=O)COc1ccc(-c2cc3c([nH]2)c(=O)n(C)c(=O)n3C)cc1OC`, the inhibition at Adenosine receptor A2a [2] was found to be 18%; in test [4] it was 8%. Further, the results for the Ki at Adenosine receptor A2a [3] and on Adenosine receptor A2b were 3720 nM and 1510 nM, respectively.

In the case of `CCn1c(=O)c2[nH]c(-c3ccc(OCC(=O)O)cc3)cc2n(CCCOC)c1=O`, the inhibition was found to be 20% on Adenosine receptor A2a [2] and 66% in test [4]. The values for the Ki at Adenosine receptor A2a [3] and on Adenosine receptor A2b were 933 nM and 72.4 nM, respectively.

Turning to `CCCn1c(=O)c2[nH]c(-c3cc(OCC(=O)c4ccc(C)cc4)nn3C)nc2n(CCC)c1=O`, the values for the Ki on Adenosine receptor A2a [3] and at Adenosine receptor A2b were 19.1 nM and greater than 1000 nM, respectively.

For `CCCn1c(=O)c2nc(-c3cc(OCC(=O)c4ccc(C(=O)OCC)cc4)nn3C)[nH]c2n(CCC)c1=O`, the Ki at Adenosine receptor A2a [3] is 32.4 nM; at Adenosine receptor A2b, greater than 1000 nM.

Regarding `CCCn1c(=O)c2nc(-c3cc(OCC(=O)c4ccc(C(C)=O)cc4)nn3C)[nH]c2n(CCC)c1=O`, the Ki at Adenosine receptor A2a [3] is 87.1 nM; on Adenosine receptor A2b it was greater than 1000 nM.

With `CCOC(=O)COc1ccc(-c2cc3c([nH]2)c(=O)n(C)c(=O)n3CCCOC)cc1`, the inhibition was found to be 5% at Adenosine receptor A2a [2] and 22% in test [4]. The Ki at Adenosine receptor A2a [3] was 1860 nM; at Adenosine receptor A2b it was 372 nM.

In the case of `Cn1c(=O)c2[nH]c(-c3ccc(OCC(=O)O)cc3)cc2n(C)c1=O`, the results for the inhibition (at Adenosine receptor A2a [2]; in test [4]) were 14% and 47%, respectively. In addition, the Ki at Adenosine receptor A2a [3] is 4170 nM; at Adenosine receptor A2b, 123 nM.

As to `CCCn1c(=O)c2[nH]c(-c3ccc(OCC(=O)Nc4ccc(Cl)cc4)cc3)nc2n(CCC)c1=O`, the inhibitory constant (Ki) on Adenosine receptor A2a [3] is 191 nM; on Adenosine receptor A2b it was 7.94 nM.

As for `CCCn1c(=O)c2[nH]c(-c3ccc(OCC(=O)Nc4ccc(I)cc4)cc3)nc2n(CCC)c1=O`, the Ki on Adenosine receptor A2a [3] is 5890 nM.

For the compound `CCCn1c(=O)c2nc(-c3ccc(OCC(=O)c4ccc(I)cc4)cn3)[nH]c2n(CCC)c1=O`, the values for the Ki at Adenosine receptor A2a [3] and on Adenosine receptor A2b were 11 nM and greater than 1000 nM, respectively.

Regarding `CCOC(=O)COc1ccc(-c2cc3c([nH]2)c(=O)n(CC)c(=O)n3CCCOC)cc1`, the inhibition on Adenosine receptor A2a [2] stood at 16%; in test [4] it was 57%. Also, the Ki at Adenosine receptor A2a [3] was 447 nM; on Adenosine receptor A2b, 66.1 nM.

On to `CCCn1c(=O)c2[nH]c(-c3ccc(OCC(=O)O)cc3)cc2n(C)c1=O`, for which the inhibition at Adenosine receptor A2a [2] amounted to 21%; in test [4], 63%. Further, the Ki was 4070 nM on Adenosine receptor A2a [3] and 43.7 nM at Adenosine receptor A2b.

Take `COCCCn1c(=O)n(C)c(=O)c2[nH]c(-c3ccc(OCC(=O)O)cc3)cc21`: the inhibition at Adenosine receptor A2a [2] worked out at 11%; in test [4], 35%. The inhibition constant (Ki) on Adenosine receptor A2a [3] was 11500 nM; at Adenosine receptor A2b it was 214 nM.

In the case of `CCCn1c(=O)c2nc(-c3cc(OCC(=O)c4ccc(F)cc4)nn3C)[nH]c2n(CCC)c1=O`, the figures for the Ki on Adenosine receptor A2a [3] and at Adenosine receptor A2b were 12.6 nM and greater than 1000 nM, respectively.

In the case of `CCOC(=O)COc1ccc(-c2cc3c([nH]2)c(=O)n(C)c(=O)n3C)cc1`, the inhibition at Adenosine receptor A2a [2] came out at 10%; in test [4], 25%. For the same compound, the results for the Ki on Adenosine receptor A2a [3] and on Adenosine receptor A2b were 1950 nM and 288 nM, respectively.

With `CCCn1c(=O)c2nc(-c3cc(OCC(=O)c4ccc(Br)cc4)n(C)n3)[nH]c2n(CCC)c1=O`, the Ki at Adenosine receptor A2a [3] is 93.3 nM; on Adenosine receptor A2b, greater than 1000 nM.
